Paper PMC11249953, “c-KIT inhibitors reduce pathology and improve behavior in the Tg(SwDI) model of Alzheimer’s disease” (Life Science Alliance, 2024)
Several values for one entry are separate records, joined by “and”; a condition that tells them apart may be missing. Equal values may be shown once.

What was measured:
mice [1] = assay: Nesting, source data sheets Nesting (mouse line not given); type: in vivo; parameters: key to Nesting Score AVG (of three observers) / Nesting Score AVG, group mean / Nesting Score / Nesting Score AVG: 0 = nestlet untouched to 5 = near perfect nest; settings: one value per mouse, listed as 197
Method: Mice were singly housed in standard cages overnight (6 pm–6 am) with a 3-gram cloth nestlet and allowed to freely behave. The next day, nestlets were weighed and photographed, and amount of nestlet shredding was recorded by three observers based on the following scale: 0—nestlet untouched, 1—nestlet hardly touched (more than 90% intact), 2—nestlet partially torn (50–90% intact), 3—mostly shredded but no identifiable nest, less than 50% intact but less than 90% in a single quarter of the cage, 4—An identifiable but flat nest, more than 90% torn and material is gathered in a single quarter of the cage, 5—A near perfect nest, more than 90% of the nestlet is torn and the nest is a crater, with walls higher than the mouse body height.

PIP5K1A = biological target: T1, PIP5K1A (Homo sapiens, UniProt Q99755); assay: KINOMEscan competition binding, PIP5K1A; settings: 10 µM compound
T1 construct: DNA label for qPCR read-out (T7 phage fusion or DNA tag); purchased Eurofins DiscoverX Corporation; host or cells: T7 phage in E. coli (BL21-derived) or HEK-293
Method: The KINOMEscan screening platform (Eurofins DiscoverX Corporation) was performed using active site-directed competition binding assay to quantitatively measure interactions between BK40143 and BK40197 and more than 450 human kinases and disease relevant mutant variants. […] Screening “hits” are identified by measuring the amount of kinase captured in test (BK40143 and BK40197) versus control samples by using a quantitative and ultra-sensitive qRT-PCR method that detects the associated DNA label. BK40143 and BK40197 were screened at 10 µM concentration, and results for primary screen binding interactions were reported as “% Ctrl” (POC), where lower numbers indicate stronger hits and calculated as follows: [test compound signal−positive control signal/negative control signal−positive control signal]×100
negative control = DMSO (100% Ctrl)
positive control = control compound (0% Ctrl)
Based on screening data from of profiled compounds, a proportional relationship between primary screening results and corresponding compound/target affinities can be described as binding constants (Kd values) for the indicated ranges of POC values with tighter binding (higher affinity) interactions associated with lower POC values and weaker binding (lower affinity) associated with higher POC values. Briefly, kinase-tagged T7 phage strains were grown in parallel in 24-well blocks in an E. coli host derived from the BL21 strain. E. coli were grown to log-phase and infected with T7 phage from a frozen stock (multiplicity of infection = 0.4) and incubated with shaking at 32°C until lysis (90–150 min). The lysates were centrifuged (6,000g) and filtered (0.2 μm) to remove cell debris. The remaining kinases were produced in HEK-293 cells and subsequently tagged with DNA for qRT-PCR detection. Streptavidin-coated magnetic beads were treated with biotinylated small molecule ligands for 30 min at RT to generate affinity resins for kinase assays. The liganded beads were blocked with excess biotin and washed with blocking buffer (1% BSA, 0.05% Tween 20, 1 mM DTT; SeaBlock [Pierce]) to remove unbound ligand and to reduce non-specific phage binding. Binding reactions were assembled by combining kinases, liganded affinity beads, and test compounds in 1x binding buffer (20% 0.17x PBS, 0.05% Tween 20, 6 mM DTT; SeaBlock). Test compounds were prepared as 100x stocks in 100% DMSO and directly diluted into the assay. All reactions were performed in polypropylene 384-well plates in a final volume of 0.02 ml. The assay plates were incubated at RT with shaking for 1 h and the affinity beads were washed with wash buffer (1x PBS, 0.05% Tween 20). […] The kinase concentration in the eluates was measured by qRT-PCR.

mice [2] = assay: Novel object recognition, source data sheet NOR (mouse line not given); type: in vivo; parameters: key to Probe: DI (Discrimination Index: Novel / Total) / Familiarization: DI / Familiarization: DI, group mean / Familiarization DI: DI = novel-object exploration time / total exploration time of both objects; Familiarization: Total / Familiarization B / Familiarization Total: unit not given here; settings: one value per mouse, listed as 197
Method: Novel object recognition was carried out using a 50 × 50 cm arena with clear walls covered by brown construction paper. Mice were habituated to the room for 30 min each day, before being allowed to freely explore the arena for 5 min two times, for 3 d. On the 4th d, two identical objects were placed in the arena in opposite adjacent corners, 10 cm from the corner of the arena. Mice were placed along the wall opposite from the objects and allowed to freely explore for 10 min. Approach behavior (extending nose toward the object) toward both objects was recorded manually using handheld stop watches and compared with ensure there was no preference for either neutral object. For the probe trial, one object was removed and replaced with a novel object, and mice were again allowed to freely explore for 10 min, with approach time towards the novel and familiar objects recorded. Trials in which the mice explored for less than 1 s were excluded. Discrimination index was calculated by dividing time spent exploring the novel object by total time exploring both objects and was compared for treated versus control animals.

T1 sequence (Q99755 whole entry, the tested form may be a part): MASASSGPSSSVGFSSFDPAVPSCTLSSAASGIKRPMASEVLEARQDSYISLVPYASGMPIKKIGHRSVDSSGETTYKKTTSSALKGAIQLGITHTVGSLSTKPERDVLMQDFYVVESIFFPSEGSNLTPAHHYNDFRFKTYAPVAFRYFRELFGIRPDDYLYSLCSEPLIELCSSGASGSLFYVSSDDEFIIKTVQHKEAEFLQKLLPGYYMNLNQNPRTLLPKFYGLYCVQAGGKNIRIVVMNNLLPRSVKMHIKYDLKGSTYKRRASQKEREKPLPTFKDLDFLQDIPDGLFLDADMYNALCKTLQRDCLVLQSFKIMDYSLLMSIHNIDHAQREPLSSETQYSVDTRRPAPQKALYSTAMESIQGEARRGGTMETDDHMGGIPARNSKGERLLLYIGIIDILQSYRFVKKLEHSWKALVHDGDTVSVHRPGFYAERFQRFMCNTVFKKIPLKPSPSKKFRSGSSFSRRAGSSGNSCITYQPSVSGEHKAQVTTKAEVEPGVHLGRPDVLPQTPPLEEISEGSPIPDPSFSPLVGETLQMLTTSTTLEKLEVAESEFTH

Cc1cccc(-c2cc3nccc(N4CCOCC4)c3s2)c1 [BK40197]
Nesting Score (mice [1]; average score of the raters listed by treatment group): 2 and 1 and 0.5 and 0 and 3
Nesting Score AVG (mice [1]; nesting, average of the raters): 2 and 1 and 3 and 0.5 and 0
Nesting Score (KORLISS) (mice [1]; nesting, rater KORLISS): 2 (nestlet partially torn (50–90% intact)) and 1 (nestlet hardly touched (more than 90% intact)) and 4 and 0
Nesting Score(MAX) (mice [1]; nesting, rater MAX): 2 (nestlet partially torn (50–90% intact)) and 1 (nestlet hardly touched (more than 90% intact)) and 0
Weight (mice [1]; nestlet weight listed by treatment group, in g (unit assumed)): 2.1 and 2.8 and 2.5 and 2.6 and 2.9 and 1.7
inhibition at 10 µM (PIP5K1A): 94.9%
remaining binding at 10 µM (PIP5K1A; lower = stronger binding, read-out: PIP5K1A %Ctrl @ 10000nM (POC)): 5.1%
Probe DI (mice [2]; Discrimination Index: Novel / Total): 0.7189 and 0.4276 and 0.6036 and 0 and 0.3497 and 0.7629 and 0.5645
Familiarization Total (mice [2]; novel object recognition, familiarization, A + B): 6.07 and 3.17 and 0.72 and 1.59 and 2.09 and 99.73 and 4.98 and 1.54 and 46.43
Familiarization B (mice [2]; novel object recognition, familiarization, object B): 4.54 and 2.11 and 0 and 0.44 and 2.09 and 67.09 and 3.73 and 0.91 and 31.96
Familiarization DI (mice [2]; novel object recognition, familiarization): 0.2521 and 0.3344 and 1 and 0.7233 and 0 and 0.3273 and 0.251 and 0.4091 and 0.3117
Probe Familiar (mice [2]; novel object recognition, probe, familiar object): 3.8 and 3.44 and 1.78 and 0.31 and 0 and 59.03 and 0.92 and 1.62
Probe Total (mice [2]; novel object recognition, probe, novel + familiar): 13.52 and 6.01 and 4.49 and 0.31 and 0 and 90.78 and 3.88 and 3.72
Probe Novel (mice [2]; novel object recognition, probe, novel object): 9.72 and 2.57 and 2.71 and 0 and 31.75 and 2.96 and 2.1
% Difference (mice [2]; probe DI minus familiarization DI, Exclude trials where mice explored <1s): 46.6876% and 9.324% and -39.6437% and 2.2463% and 51.1883% and 15.5425%
